Measured values reported in US20260013502A1, “METHOD FOR TERMINATING COVER CROP GROWTH” (SUMITOMO CHEMICAL COMPANY, LIMITED, priority 2022, published 2026).
Where “and” joins values, the source holds several entries; their conditions need not be identical. Identical values can stand only once. Counter-ions that a name gives are not always drawn.

Columns and labels:
[1] = system: cereal rye (Secale cereale); assay: Example 7: greenhouse pot test, foliar application, termination of cereal rye growth; assay type: in vivo; settings: for Dry matter weight: cereal rye above-ground parts at growth termination, average of 3 pots
Method: (§1) A plastic pot was filled with soil, and cereal rye (Secale cereale) was seeded and grown in a greenhouse. Fifteen days after seeding, RoundupPowerMax was diluted with water, and then the cereal rye was subjected to foliar application from above using an automatic sprayer at a spray volume of 200 L/ha to achieve an application rate of 1,543 g/ha as glyphosate-potassium salt.
(§2) At the same time, the cereal rye was similarly seeded in another plastic pot and grown. Twenty-one days after seeding, epyrifenacil emulsifiable concentrate (55 g/L) or saflufenacil suspension (341 g/L) was diluted with water containing 1% (v/v) adjuvant Agri-Dex, and then the cereal rye was subjected to foliar application from above using an automatic sprayer at a spray volume of 200 L/ha to achieve an application rate of 25 g/ha.
(§3) After application with the herbicide, the cereal rye was grown in a greenhouse, and in case the growth was terminated, the above-ground parts were harvested at termination of the growth and the dry matter weight was measured. In this test, the growth was judged to be terminated when death of terminal and lateral buds was visually confirmed. The date at the beginning of the onset of effect, the growth termination date, and the dry matter weight at the time of growth termination are shown in Table 1. The onset of the effect was judged by visually observing the change in leaf color. Application with each herbicide was performed using three pots. The date at the beginning of the onset of effect and the growth termination date in the table were dates on which the onset of effect and growth termination were confirmed in all three pots, respectively. The dry matter weight was the average of the three pots.

[2] = system: edible radish (Daikon Radish); assay: Example 8: greenhouse pot test, foliar application, termination of radish growth; assay type: in vivo, Raphanus sativus; settings: for Dry matter weight: radish entire plant at growth termination, average of 3 pots; for Growth termination date / Date at the beginning of the onset of effect: epyrifenacil 25 g/ha applied 21 days after seeding, glyphosate-potassium salt 1,543 g/ha applied 15 days after seeding; for Date at the beginning of the onset of effect: visual change in leaf color in all 3 pots, day relative to application
Method: as §1, with “edible radish (Daikon Radish)” for “cereal rye (Secale cereale)”, “radish” for “cereal rye”
as §2, with “radish” for “cereal rye”, “g/L)” for “g/L) or saflufenacil suspension (341 g/L)”
as §3, with “radish” for “cereal rye”, “entire plant was dug up” for “above-ground parts were harvested”, “2.” for “1.”

[3] = system: cereal rye (Secale cereale); assay: Example 9: outdoor pot test, foliar application, termination of cereal rye growth; assay type: in vivo; settings: glyphosate-potassium salt 1,543 g/ha; for Growth termination date / Date at the beginning of the onset of effect: cereal rye, outdoors, applied 24 days after seeding, epyrifenacil/saflufenacil 20 g/ha; for Growth termination date: death of terminal and lateral buds in all 7 pots; for Date at the beginning of the onset of effect: visual change in leaf color in all 7 pots, day relative to application; for Incremental dry matter weight: cereal rye above-ground parts, average dry matter weight at growth termination minus average untreated dry matter weight 24 days after seeding (7 pots), epyrifenacil 20 g/ha
Method: as §1, with “outdoors. Twenty-four” for “in a greenhouse. Fifteen”
as §2, with “Twenty-four” for “Twenty-one”, “20” for “25”
At the same time, the cereal rye was similarly seeded in another plastic pot and grown. Twenty-four days after seeding, the above-ground parts were harvested and the dry matter weight (hereinafter referred to as untreated dry matter weight) was measured.
(§4) The cereal rye applied with the herbicide was grown outdoors after application with the herbicide, and in case the growth was terminated, the above-ground parts were harvested at termination of the growth and the dry matter weight was measured. In this test, the growth was judged to be terminated when death of terminal and lateral buds was visually confirmed. The date at the beginning of the onset of effect, the growth termination date, and the dry matter weight at the time of growth termination are shown in Table 3. The onset of the effect was judged by visually observing the change in leaf color. Application with each herbicide was performed using seven pots. The date at the beginning of the onset of effect and the growth termination date in the table were dates on which the onset of effect and growth termination were confirmed in all seven pots, respectively. The incremental dry matter weight was the value calculated by the following formula (1).
(§5) Incremental dry matter weight=average dry matter weight at the time of growth termination−average untreated dry matter weight 24 days after seeding Formula (1): • Average dry matter weight at the time of growth termination: average value of dry matter weights of 7 pots at the time of growth termination • Average untreated dry matter weight 24 days after seeding: average value of untreated dry matter weights of 7 pots

[4] = system: edible radish (Daikon Radish); assay: Example 10: outdoor pot test, foliar application, termination of radish growth; assay type: in vivo, Raphanus sativus; settings: outdoors, applied 24 days after seeding, epyrifenacil 20 g/ha, glyphosate-potassium salt 1,543 g/ha; for Growth termination date: death of terminal and lateral buds in all 7 pots; for Date at the beginning of the onset of effect: visual change in leaf color in all 7 pots, day relative to application
Method: as §1, with “edible radish (Daikon Radish)” for “cereal rye (Secale cereale)”, “outdoors. Twenty-four” for “in a greenhouse. Fifteen”, “radish” for “cereal rye”, “1, 543” for “1,543”
as §2, with “radish” for “cereal rye”, “Twenty-four” for “Twenty-one”, “g/L)” for “g/L) or saflufenacil suspension (341 g/L)”, “[…]” for “1%”, “20” for “25”
At the same time, the radish was similarly seeded in another plastic pot and grown. Twenty-four days after seeding, the entire plant was dug up and the dry matter weight (hereinafter referred to as untreated dry matter weight) was measured.
as §4, with “radish” for “cereal rye”, “entire plant was dug up” for “above-ground parts were harvested”, “4.” for “3.”, “(2).” for “(1).”
as §5, with “(2):” for “(1):”

[5] = system: cereal rye (Secale cereale); assay: Example 1: outdoor boom-sprayer foliar application to overwintered cereal rye at heading stage; assay type: in vivo; settings: 40 g/ha epyrifenacil, EC 55 g/L, 0.5% MSO + 1% ammonium sulfate, 189 L/ha
Method: At the heading stage of cereal rye (Secale cereale) seeded in the autumn and overwintered outdoors after corn cultivation, epyrifenacil emulsifiable concentrate (55 g/L) was diluted with water containing 0.5% (v/v) adjuvant MSO+1% (w/v) ammonium sulfate, and the cereal rye is subjected to foliar application using a boom sprayer at a spray volume of 189 L/ha to deliver 40 g/ha of epyrifenacil.

[6] = system: radish (Tillage Radish); assay: Example 2: outdoor boom-sprayer foliar application to overwintered radish at bolting stage; assay type: in vivo, Raphanus sativus; settings: 20 g/ha epyrifenacil, EC 55 g/L, 0.5% Agri-Dex + 1% ammonium sulfate, 150 L/ha
Method: (§6) At the bolting stage of radish (Tillage Radish) seeded in the autumn and overwintered outdoors after soybean cultivation, epyrifenacil emulsifiable concentrate (55 g/L) was diluted with water containing 0.5% (v/v) adjuvant Agri-Dex+1% (w/v) ammonium sulfate, and the radish is subjected to foliar application using a boom sprayer at a spray volume of 150 L/ha to deliver 20 g/ha of epyrifenacil.

[7] = system: barley (Hordeum vulgare); assay: Example 3: outdoor boom-sprayer foliar application to overwintered barley at internode elongation stage; assay type: in vivo; settings: 30 g/ha epyrifenacil, EC 55 g/L, 0.5% Agri-Dex + 1% ammonium sulfate, 250 L/ha
Method: as §6, with “internode elongation” for “bolting”, “barley (Hordeum vulgare)” for “radish (Tillage Radish)”, “in a corn cultivation trace,” for “after soybean cultivation,”, “barley” for “radish”, “250” for “150”, “30” for “20”

[8] = epyrifenacil 25 g/ha, glyphosate-potassium salt 1,543 g/ha
[9] = epyrifenacil 25 g/ha, glyphosate-potassium salt 1,543 g/ha, listed as epyrifenacil
[10] = cereal rye, greenhouse, death of terminal and lateral buds in all 3 pots, epyrifenacil/saflufenacil 25 g/ha applied 21 days after seeding, glyphosate-potassium salt 1,543 g/ha applied 15 days after seeding
[11] = radish, greenhouse, death of terminal and lateral buds in all 3 pots
[12] = listed as glyphosate-potassium salt

Structure (SMILES) | Dry matter weight [1, 8] | Dry matter weight [1, 9] | Growth termination date [1, 10] | Dry matter weight [2, 8] [kg/ha] | Dry matter weight [2, 9] | Growth termination date [2, 11] | Date at the beginning of the onset of effect ([2]; radish, greenhouse) | Growth termination date [3] | Date at the beginning of the onset of effect [3] | Growth termination date [4] | Date at the beginning of the onset of effect [4] | Death of the cereal rye observed [5] [days after application] | Death of the radish observed [6] [days after application] | Death of the barley observed [7] [days after application] | Growth termination date (days after application) ([1]; cereal rye, greenhouse, death of terminal and lateral buds in all 3 pots, epyrifenacil 25 g/ha, glyphosate-potassium salt 1,543 g/ha) | Date at the beginning of the onset of effect ([1]; cereal rye, greenhouse, visual change in leaf color in all 3 pots, day relative to application, epyrifenacil/saflufenacil 25 g/ha applied 21 days after seeding, glyphosate-potassium salt 1,543 g/ha applied 15 days after seeding) | Growth termination date (days after application) ([2]; radish, greenhouse, death of terminal and lateral buds in all 3 pots, epyrifenacil 25 g/ha, glyphosate-potassium salt 1,543 g/ha) | Incremental dry matter weight [3] [Kg/ha] | Incremental dry matter weight [3, 12] | Growth termination date [3, 12] [Days after application]
CCOC(=O)COc1ncccc1Oc1cc(-n2c(=O)cc(C(F)(F)F)n(C)c2=O)c(F)cc1Cl [Epyrifenacil, epyrifenacil] | 1,118 kg/ha | biomass was greater | 24 Days Days after seeding | 905 | biomass was greater | 24 Days after Days after seeding | On the day of | 7 Days after application and 7 Days Days after application | Day after | 7 Days after application and 7 Days after Days after application | Day after | 4 | 3 | 4 |  |  |  |  |  | 
O=C(O)CNCP(=O)(O)O [Glyphosate-potassium salt, glyphosate-potassium salt] | 595 kg/ha |  | 24 Days Days after seeding | 360 |  | 24 Days after Days after seeding | 7 Days after Days after application | 21 Days Days after application | 7 Days after Days after application | failed to terminate the growth | 10 Days Days after application |  |  |  | seeding (9 days after application | 5 Days after Days after application | seeding (9 days after application | −42 | reduced biomass | 21
CC(C)N(C)S(=O)(=O)NC(=O)c1cc(-n2c(=O)cc(C(F)(F)F)n(C)c2=O)c(F)cc1Cl [Saflufenacil, saflufenacil] |  |  | failed to terminate the growth |  |  |  |  | failed to terminate the growth | Day after |  |  |  |  |  |  |  |  |  |  | 
